Experimental findings from ChEMBL document CHEMBL6178019, “Discovery of CYP1A1 Inhibitors for Host-Directed Therapy against Sepsis” (J Med Chem, 2025) are described below.

What all share (type): cell-based
Data set [1] concerns the target T1, CYP1A1 (Mus musculus, UniProt P00184).
T1 sequence (P00184 whole entry): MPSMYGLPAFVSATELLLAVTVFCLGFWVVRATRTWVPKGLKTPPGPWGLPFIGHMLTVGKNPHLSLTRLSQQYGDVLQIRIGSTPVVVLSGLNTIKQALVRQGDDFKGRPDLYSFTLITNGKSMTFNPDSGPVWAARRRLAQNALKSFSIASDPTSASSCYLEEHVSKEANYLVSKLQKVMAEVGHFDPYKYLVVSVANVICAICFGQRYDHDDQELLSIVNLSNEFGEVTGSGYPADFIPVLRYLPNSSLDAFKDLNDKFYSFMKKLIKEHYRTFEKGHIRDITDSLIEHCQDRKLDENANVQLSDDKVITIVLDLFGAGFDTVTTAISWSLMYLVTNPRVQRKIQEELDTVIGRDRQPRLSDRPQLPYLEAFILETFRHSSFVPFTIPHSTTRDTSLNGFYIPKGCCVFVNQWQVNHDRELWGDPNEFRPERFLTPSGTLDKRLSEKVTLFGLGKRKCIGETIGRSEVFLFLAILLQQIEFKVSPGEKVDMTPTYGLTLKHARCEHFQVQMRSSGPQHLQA
In words: Inhibition of CYP1A1 in mouse RAW264.7 cells assessed as relative activity by measuring fold change at 500 nM incubated for 12 hrs by EROD assay relative to control. As to conditions: read-out: FC.

Data set [2] has as its target T2, CYP1A1 (Homo sapiens, UniProt P04798).
T2 sequence (P04798 whole entry): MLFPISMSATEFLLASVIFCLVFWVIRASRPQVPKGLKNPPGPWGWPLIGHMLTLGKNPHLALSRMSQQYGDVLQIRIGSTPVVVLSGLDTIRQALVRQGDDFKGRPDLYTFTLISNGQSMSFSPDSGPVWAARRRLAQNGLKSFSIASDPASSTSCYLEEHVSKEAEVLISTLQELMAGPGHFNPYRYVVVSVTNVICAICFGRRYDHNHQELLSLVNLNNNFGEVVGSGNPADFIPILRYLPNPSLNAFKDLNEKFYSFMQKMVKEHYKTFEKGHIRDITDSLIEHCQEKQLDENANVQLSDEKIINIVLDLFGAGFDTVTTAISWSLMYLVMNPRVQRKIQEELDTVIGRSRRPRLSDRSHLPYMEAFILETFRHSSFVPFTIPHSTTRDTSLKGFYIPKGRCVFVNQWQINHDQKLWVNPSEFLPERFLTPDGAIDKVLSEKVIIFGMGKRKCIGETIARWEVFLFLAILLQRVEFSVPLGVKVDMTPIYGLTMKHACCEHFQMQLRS
In words: Inhibition of CYP1A1 in human Caco-2 cells assessed as relative activity by measuring fold change at 500 nM incubated for 12 hrs by EROD assay relative to control. As to conditions: read-out: FC.

The target in data set [3] is T3, Cytochrome P450 1A1 (Homo sapiens, UniProt P04798).
T3 sequence (P04798 whole entry): T2 sequence (P04798 whole entry)
Nature of the data set: Inhibition of CYP1A1 in human Caco-2 cells assessed as relative activity by measuring fold change at 5.0 uM incubated for 12 hrs by EROD assay relative to control. As to conditions: caco-2, 12 h.

The target in data set [4] is T1, CYP1A1. In words: Inhibition of CYP1A1 in mouse RAW264.7 cells assessed as relative activity by measuring fold change at 5 uM incubated for 12 hrs by EROD assay relative to control. As to conditions: read-out: FC.
For data set [5], the target named is T1, CYP1A1. In words: Inhibition of CYP1A1 in mouse RAW264.7 cells at 5 uM incubated for 12 hrs by EROD assay relative to control.
For data set [6], the target named is T2, CYP1A1. In words: Inhibition of CYP1A1 in human Caco-2 cells at 5 uM incubated for 12 hrs by EROD assay relative to control.
The target in data set [7] is T3, Cytochrome P450 1A1. Nature of the data set: Inhibition of CYP1A1 in human Caco-2 cells incubated for 12 hrs by EROD assay. As to conditions: caco-2, 12 h, at 50 to 5000 nM, dose 50-5000 nM.

As for `Cn1c(=O)n(C)c2cc(C(=O)/C=C/c3cccs3)ccc21`, the fold induction at 12 h, 0.5 µM in data set [1] is 0.38; in data set [2], 0.45. In data set [3], the “fold change (FC)” value was 0.18. Besides, the fold induction at 12 h, 5 µM in data set [4] turned out to be 0.23. In addition, the inhibition at 12 h, 5 µM in data set [5] and in data set [6] was approximately 80% in each case.

For the molecule `Cn1c(=O)n(C)c2cc(C(=O)/C=C/c3ccccc3F)ccc21`, the fold induction at 12 h, 0.5 µM in data set [1] amounted to 1.17; in data set [2] it was 0.32. Also, in data set [3], the “fold change (FC)” value amounted to 0.04. Moreover, in data set [7], the “inhibition (INH)” value is listed as “Dose-dependent-effect”. The fold induction at 12 h, 5 µM in data set [4] came out at 1.02. This molecule also came in with an inhibition at 12 h, 5 µM in data set [6] of 100%.

As for `Cn1c(=O)n(C)c2cc(C(=O)/C=C/c3ccsc3)ccc21`, the values for the fold induction at 12 h, 0.5 µM in data set [1] and in data set [2] were 0.58 and 0.43, respectively. Besides, the “fold change (FC)” value in data set [3] amounted to 0.19. Moreover, the fold induction at 12 h, 5 µM in data set [4] worked out at 0.32. Moreover, the inhibition at 12 h, 5 µM in data set [5] and in data set [6] was approximately 80% in each case.

Regarding `Cn1c(=O)n(C)c2cc(C(=O)/C=C/c3cc4ccccc4s3)ccc21`, the values for the fold induction at 12 h, 0.5 µM in data set [1] and in data set [2] were 1.12 and 0.81, respectively. In data set [3], the “fold change (FC)” value came to 0.56. Besides, the fold induction at 12 h, 5 µM in data set [4] worked out at 0.77.

For `Cn1c(=O)n(C)c2cc(C(=O)/C=C/c3ccc([N+](=O)[O-])o3)ccc21`, the fold induction at 12 h, 0.5 µM in data set [1] came out at 0.95; in data set [2] it was 0.71. Also, the “fold change (FC)” value in data set [3] is on record as 0.28. In addition, the fold induction at 12 h, 5 µM in data set [4] came out at 0.24.

Take `Cn1c(=O)n(C)c2cc(C(=O)/C=C/c3cccc(F)c3)ccc21`: the fold induction at 12 h, 0.5 µM was determined as 1.42 in data set [1] and 0.32 in data set [2]. In data set [3], the “fold change (FC)” value was found to be 0.07. The fold induction at 12 h, 5 µM in data set [4] stood at 0.8.

Take `Cn1c(=O)n(C)c2cc(C(=O)/C=C/c3cc(F)c(F)cc3F)ccc21`: the fold induction at 12 h, 0.5 µM was 1.11 in data set [1] and 0.35 in data set [2]. In addition, the “fold change (FC)” value in data set [3] came out at 0.1. Further, in data set [4], the fold induction at 12 h, 5 µM is 0.79.

In the case of `Cn1c(=O)n(C)c2cc(C(=O)/C=C/C=C/c3ccccc3)ccc21`, the fold induction at 12 h, 0.5 µM came to 0.62 in data set [1] and 0.82 in data set [2]. Also, the “fold change (FC)” value in data set [3] came out at 0.35. Further, the fold induction at 12 h, 5 µM in data set [4] was found to be 0.44.

For the molecule `Cn1c(=O)n(C)c2cc(C(=O)/C=C/c3cccn3C(=O)OC(C)(C)C)ccc21`, the fold induction at 12 h, 0.5 µM in data set [1] is 0.69; in data set [2] it was 0.9. Also, in data set [3], the “fold change (FC)” value was 0.67. For the same molecule, the fold induction at 12 h, 5 µM in data set [4] was determined as 0.55.

As to `Cn1c(=O)n(C)c2cc(C(=O)/C=C/c3cn(Cc4ccccc4)c4ccccc34)ccc21`, the fold induction at 12 h, 0.5 µM in data set [1] was 0.84; in data set [2], 0.52. Also, the “fold change (FC)” value in data set [3] is on record as 0.33. For the same molecule, the fold induction at 12 h, 5 µM in data set [4] turned out to be 0.78.

As for `Cn1c(=O)n(C)c2cc(C(=O)/C=C/c3coc4ccccc34)ccc21`, the fold induction at 12 h, 0.5 µM is 0.5 in data set [1] and 1.29 in data set [2]. Further, in data set [3], the “fold change (FC)” value turned out to be 0.9. In data set [4], the fold induction at 12 h, 5 µM stood at 0.22.

As for `Cn1c(=O)n(C)c2cc(C(=O)/C=C/c3cccc(OC(F)(F)F)c3)ccc21`, the fold induction at 12 h, 0.5 µM in data set [1] is 0.62; in data set [2] it was 0.58. Besides, the “fold change (FC)” value in data set [3] is 0.17. In data set [4], the fold induction at 12 h, 5 µM came to 0.16.

As to `Cn1c(=O)n(C)c2cc(C(=O)/C=C/c3ncccn3)ccc21`, the fold induction at 12 h, 0.5 µM in data set [1] is 0.73; in data set [2], 1.05. Moreover, in data set [3], the “fold change (FC)” value was 0.88. Also, the fold induction at 12 h, 5 µM in data set [4] amounted to 0.72.

`CC(C)=CCC/C(C)=C/COc1c2ccoc2cc2oc(=O)ccc12` [BERGAMOTTIN]: the values for the fold induction at 12 h, 0.5 µM in data set [1] and in data set [2] were 0.44 and 0.19, respectively. Further, in data set [3], the “fold change (FC)” value was found to be 0.05. The fold induction at 12 h, 5 µM in data set [4] stood at 0.18.

Consider `CSc1ccc(/C=C/C(=O)c2ccc3c(c2)n(C)c(=O)n3C)cc1`, for which the fold induction at 12 h, 0.5 µM in data set [1] stood at 0.57; in data set [2], 0.81. Besides, in data set [3], the “fold change (FC)” value was 0.78. Moreover, the fold induction at 12 h, 5 µM in data set [4] is 0.2.

In the case of `Cn1c(=O)n(C)c2cc(C(=O)/C=C/c3ccc4ccccc4n3)ccc21`, the fold induction at 12 h, 0.5 µM in data set [1] was determined as 0.61; in data set [2], 0.38. In data set [3], the “fold change (FC)” value worked out at 0.13. In addition, in data set [4], the fold induction at 12 h, 5 µM was determined as 0.17.

For the molecule `Cn1c(=O)n(C)c2cc(C(=O)/C=C/C3CC3)ccc21`, the fold induction at 12 h, 0.5 µM in data set [1] came to 0.8; in data set [2] it was 0.71. Moreover, the “fold change (FC)” value in data set [3] was determined as 0.12. Besides, the fold induction at 12 h, 5 µM in data set [4] was 0.38.

Regarding `Cn1c(=O)n(C)c2cc(C(=O)/C=C/c3cnc4ccccc4c3)ccc21`, the fold induction at 12 h, 0.5 µM in data set [1] stood at 1.03; in data set [2] it was 0.62. Moreover, the “fold change (FC)” value in data set [3] worked out at 0.15. In data set [4], the fold induction at 12 h, 5 µM is 0.29.

`Cn1c(=O)n(C)c2cc(C(=O)/C=C/c3ccc(I)o3)ccc21`: the values for the fold induction at 12 h, 0.5 µM in data set [1] and in data set [2] were 0.75 and 0.5, respectively. Also, the “fold change (FC)” value in data set [3] turned out to be 0.18. In addition, the fold induction at 12 h, 5 µM in data set [4] came out at 0.55.

Consider `Cn1c(=O)n(C)c2cc(C(=O)/C=C/c3cc4ccccc4o3)ccc21`, for which the fold induction at 12 h, 0.5 µM in data set [1] came out at 0.82; in data set [2], 0.66. The “fold change (FC)” value in data set [3] is 0.31. The fold induction at 12 h, 5 µM in data set [4] was 0.52.

For `Cn1c(=O)n(C)c2cc(C(=O)/C=C/c3ccccc3P(c3ccccc3)c3ccccc3)ccc21`, the fold induction at 12 h, 0.5 µM was determined as 0.86 in data set [1] and 0.72 in data set [2]. Besides, the “fold change (FC)” value in data set [3] worked out at 0.16. In addition, in data set [4], the fold induction at 12 h, 5 µM came to 0.31.

Take `C#Cc1cccc(/C=C/C(=O)c2ccc3c(c2)n(C)c(=O)n3C)c1`: the fold induction at 12 h, 0.5 µM stood at 1.07 in data set [1] and 0.18 in data set [2]. Moreover, the “fold change (FC)” value in data set [3] turned out to be 0.01. Moreover, in data set [4], the fold induction at 12 h, 5 µM stood at 0.14.

For `Cn1c(=O)n(C)c2cc(C(=O)/C=C/C=C/c3ccc(F)cc3)ccc21`, the fold induction at 12 h, 0.5 µM in data set [1] worked out at 0.82; in data set [2] it was 0.62. Besides, in data set [3], the “fold change (FC)” value worked out at 0.17. Besides, in data set [4], the fold induction at 12 h, 5 µM was 0.57.

Turning to `Cn1c(=O)n(C)c2cc(C(=O)/C=C/c3ccccc3)ccc21`, the fold induction at 12 h, 0.5 µM worked out at 0.95 in data set [1] and 0.71 in data set [2]. The “fold change (FC)” value in data set [3] turned out to be 0.28. Further, the fold induction at 12 h, 5 µM in data set [4] was determined as 0.22.

For `Cn1c(=O)n(C)c2cc(C(=O)/C=C/c3ccoc3)ccc21`, the fold induction at 12 h, 0.5 µM in data set [1] was determined as 0.93; in data set [2], 0.57. Besides, the “fold change (FC)” value in data set [3] amounted to 0.18. Moreover, in data set [4], the fold induction at 12 h, 5 µM was 0.67.

Take `Cn1c(=O)n(C)c2cc(C(=O)/C=C/c3cccnc3Br)ccc21`: the figures for the fold induction at 12 h, 0.5 µM in data set [1] and in data set [2] were 0.94 and 0.63, respectively. In addition, the “fold change (FC)” value in data set [3] is recorded as 0.22. Moreover, the fold induction at 12 h, 5 µM in data set [4] was determined as 0.22.
